Columns and labels:
[1] = test system: human hepatocellular carcinoma cell lines (HepG2 cells); conditions: compared to free curcumin; cited from earlier work
A549 = conditions: A549, in vitro; cited from earlier work
in vivo = conditions: mouse
Method: Intravenous administration of a single dose of curcumin monoglucuronide was performed to each of the mice at each dose of 125, 250, 500 and 1000 mg/kg, and the toxicity thereof was evaluated. In this regard, the number of mice in each group was set to be n=5.
As the test animals, 6-week old Slc:ICR mice (male, with a body weight of 27 to 31 g, Japan SLC, Inc.), which had been purchased and acclimated to the environment for around 6 days, was used.
Observation of the state of each of the mice was performed by recording the type, extent, expression time, recovery time, and death (death detection) time of all of the toxic signs observed macroscopically.
Observation was performed at a time immediately after administration, at a time after each lapse of 30 minutes, 1, 2, 4 and 6 hours from the start of administration, and once a day from the day following the date of administration (up to after the lapse of 14 days from the start of administration).
The body weight was measured by using an electronic balance (UW4200S, Shimadzu Corporation) immediately before administration, and after each lapse of 1, 3, 7, 10 and 14 days from the administration.
Blood biochemical test was performed by the following method. That is, mice were fasted for 4 hours or more after the end of the mouse observation period (after the lapse of 14 days from the start of administration), the fasted mice were subjected to laparotomy under anesthesia by intraperitoneal administration of pentobarbital sodium, and the blood was collected from the abdominal aorta (the amount of the blood was 0.6 mL or more). Next, the collected blood was anti-coagulated with heparin sodium, and then the anti-coagulated blood was centrifuged (4° C., 3000 rpm, for 10 minutes) to obtain the plasma, and transaminase (AST and ALT) contained in the plasma was measured.
After the end of the observation period (after the lapse of 14 days from the start of administration), autopsy was performed as follows: blood was collected from each of the mice under anesthesia with pentobarbital sodium; and then the mice were sacrificed by exsanguination by cutting the abdominal aorta and the caudal vena; each of the sacrificed mice was dissected according to a pathological technique; and the cranium, the intrathoracic organs, the intraperitoneal organs, and the tissues thereof were observed macroscopically.

[2] = test system: colorectal cancer cells derived from adult human colon HCT116; assay: Anti-tumor effect by intravenous administration of curcumin conjugates (tumor size, HCT116 transplanted mice); format: in vivo, BALB/cAnNcr j-nu/nu (homo) mice; conditions: HCT116 mouse
Source text: 1×10^7 or 4×10^6 colorectal cancer cells derived from adult human […] colon HCT116 (ATCC No. CCL-247) were transplanted subcutaneously into the flank of each of the test animals by using a 27 G injection needle.
In this regard, in the control group, mice to which water for injection excluding curcumin monoglucuronide had been administered intravenously were used.
For the tumor size, after each lapse of 0, 4, 7, 11 and 14 days from the start of administration or after each lapse of 0, 4, 7, 11, 14, 18 and 21 days from the start of administration, the length, width and height of the tumor were measured by using a vernier caliper, and the tumor size was calculated by the following equation. Tumor size (mm^3)=length×width×height×0.5 (5) Concentration of Curcumin Conjugates and Free Curcumin in Tumor Tissue

Jurkat cells = conditions: in vitro; cited from earlier work
[3] = test system: human hepatocellular carcinoma cell lines (HepG2 cells); conditions: cited from earlier work
KBM-5 = conditions: KBM-5, in vitro; cited from earlier work
β-glucuronidase = conditions: 10 μL of 2.81 μg/mL substrate, pH 5.0, 37° C., 1 hour, n=3
Method: In this regard, as a control, curcumin monoglucuronide was used for the examination.
In addition, as the curcumin diglucuronide, commercially available curcumin diglucuronide (manufactured by SynInnova Laboratories Inc.) was used.
Next, into the resultant mixture, 0.5 mL of chloroform was added, and the mixture was stirred for 1 minute with a vortex mixer, and then the stirred mixture was treated for 15 minutes by using an ultrasonic generator, and the treated mixture was fractionated into a chloroform layer and a water layer by centrifugation (10,000×g, for 5 minutes, at room temperature). Further, this fractionation process was repeated twice. After that, the chloroform layer was collected, and dried and solidified by distilling off the solvent with a vacuum centrifugal concentrator, and to the dried and solidified matter, 100 μL of 50% (v/v) methanol was added, and then the resultant mixture was centrifuged (10,000×g, for 5 minutes, at room temperature) to collect a supernatant liquid, and the collected supernatant liquid was taken as an enzyme-treated sample.
In 2 μL of the enzyme-treated sample prepared in the above (2), free curcumin was measured by the method described in “b.

[4] = Serum biochemical test (liver and biliary diseases set, 21 items) in tumor-bearing mice; format: in vivo, BALB/cAnNcr j-nu/nu (homo) mice; conditions: 30 mg/kg i.v., 14 days from start of administration
U266 = conditions: U266, in vitro; cited from earlier work

In the case of `COc1cc(/C=C/C(O)=C/C(=O)/C=C/c2ccc(O[C@@H]3O[C@H](C(=O)O)[C@@H](O)[C@H](O)[C@H]3O)c(OC)c2)ccc1O` [curcumin monoglucuronide], the “influence on the gene expression” value [1] is listed as “the action was extremely low”, the “cell growth inhibitory effect” value (A549) is listed as “there is no such an effect” and the “prone position and reduction of locomotor activity, number of mice” value (in vivo; male, Slc:ICR) is listed as 5. For the same molecule, the “reduction of locomotor activity, number of mice” value (in vivo; male, Slc:ICR) was 5, the LD50 at 14 days (in vivo; male, Slc:ICR, iv) was 500 to 1000 mg/kg and the autopsy findings (in vivo) was “no abnormality was found”. For the same molecule, the “state of mice by macroscopy” value (in vivo) was “no abnormality was found”, the tumor size ([2]; 30 mg/kg i.v., 0 day from start of administration) was 142.9±45.5 mm^3 and the tumor size ([2]; 30 mg/kg i.v., 4 days) was 275.1±88.1 mm^3. The tumor size ([2]; 30 mg/kg i.v., 11 days) was 489.4±147.8 mm^3, the tumor size ([2]; 30 mg/kg i.v., 14 days) was 581.2±197.4 mm^3 and the tumor size ([2]; 90 mg/kg i.v., 0 day from start of administration) was 17.4±3.2 mm^3. It also gave a tumor size ([2]; 90 mg/kg i.v., 4 days) of 23.6±8.4 mm^3, a tumor size ([2]; 90 mg/kg i.v., 7 days) of 42.6±16.6 mm^3 and a tumor size ([2]; 90 mg/kg i.v., 11 days) of 77.5±28.9 mm^3. For the same molecule, the tumor size ([2]; 90 mg/kg i.v., 14 days) was 122.9±42.6 mm^3, the tumor size ([2]; 90 mg/kg i.v., 18 days) was 204.4±76.2 mm^3 and the tumor size ([2]; 90 mg/kg i.v., 21 days) was 190.2±70.1 mm^3. The “cell growth inhibitory effect” value (Jurkat cells) was “there is no such an effect”, the “cell growth inhibitory effect” value [3] was “the effect was not found” and the “cell growth inhibitory effect” value (KBM-5) was “there is no such an effect”. For the same molecule, the “concentration of the curcumin contained in the enzyme-treated sample” value (β-glucuronidase) was 159.1 ± 6.1 ng/mL, the “serum biochemical test values (liver and biliary diseases set, 21 items)” value [4] was “no abnormality was found in the test values” and the “cell growth inhibitory effect” value (U266) was “there is no such an effect”.
